Experimental data taken from US4581356A, “Triazine derivatives, and pharmaceutical compositions comprising the same” (Fujisawa Pharmaceutical Co., Ltd., priority 1983, dated 1986).

Experiments:
blood pressure = assay: Antihypertensive activity in uninephrectomized DOCA/saline hypertensive rats (mean arterial pressure); assay type: in vivo, male Wister rats; conditions: orally, DOCA rats
Method: Five-week old male Wister rats were uninephrectomized under anesthesia. Deoxycorticosterone acetate (DOCA) (30 mg/kg), suspended in peanut oil, was injected subcutaneously twice a week and 1% saline was substituted for the drinking water. Animals with mean blood pressure 150-200 mmHg were used for experiment between 5 and 7 weeks after surgery.
The test compounds were administered intraperitonealy or orally. Blood pressure was measured at the femoral artery by means of a pressure transducer and recorded as electrically integrated values of mean arterial pressure.

[1] = test system: platelet aggregation (ADP as inducer); assay: Inhibition of ADP-induced platelet aggregation in platelet rich plasma; assay type: cell-based; conditions: Oryctolagus cuniculus, rabbit PRP, 37° C., ADP 2.5 μM, read-out: ID50 ADP
Method: (§1) Platelet rich plasma (PRP) which contains 6.5-7.5×10^8 platelet/ml was prepared from rabbit blood. To the 200 μl of PRP, 5 μl of calcium chloride (1 mM) and 50 μl of pH 7.4 Tris-acetate solution (5 mM) containing 120 mM NaCl and test compound were added successively, and then stirred for 2 min. at 37° C. To the solution, 5 μl of adenosine diphosphate (ADP) (2.5 μM) or collagen (2.5 μg/ml) was added as an aggregation inducer. Aggregation was measured by using an aggregometer (NKK HEMA TRACER 1).

[2] = test system: platelet aggregation (collagen as inducer); assay: Inhibition of collagen-induced platelet aggregation in platelet rich plasma; assay type: cell-based; conditions: Oryctolagus cuniculus, rabbit PRP, 37° C., collagen 2.5 μg/ml, read-out: ID50 Collagen
Method: as §1

ulcers (stomach) = assay: Antiulcer activity: inhibition of ulcer area in rats immobilized in water bath; assay type: in vivo, Sprague-Dawley rats; conditions: orally, 7 hours
Method: Sprague-Dawley rats weighing about 200 g were used. Each animal was immobilized in a small cage and put in a water bath allowing to respire. The temperature of the water bath kept at 22° C. The test compound was administered orally just before the immobilization. Seven hours later, the animals were sacrificed and their stomachs were removed. The stomach was then fixed with 2% formalin. The area of ulcers was measured for each animal. The mean area (mm^2) in the test animals was compared with that in the control animals and inhibition effect (%) were calculated.

SMILES: CN1C(=O)CCc2cc(C3=NNC(=O)NC3)ccc21 [Example 8 - (4), 6-(1-methyl-2-oxo-1,2,3,4-tetrahydroquinolin-6-yl)-4,5-dihydro-1,2,4-triazin-3(2H)-one]
- Effect Max (mean ratio of maximum decrease of blood pressure) (blood pressure; 0.1 mg/kg (dose a)): 15%
- Effect Max (mean ratio of maximum decrease of blood pressure) (blood pressure; 1 mg/kg (dose b)): 49%
- IC50 [1]: 360 nM
- IC50 [2]: 240 nM
- Effect (inhibition of ulcer area) (ulcers (stomach); 10 mg/kg (dose c)): 68.0%
- Effect (inhibition of ulcer area) (ulcers (stomach); 32 mg/kg (dose d)): 80.0%

SMILES: CN1C(=O)Cc2cc(C3=NNC(=O)NC3)ccc21 [Example 9 - (4), 6-(1-Methyl-2-indolinon-5-yl)-4,5-dihydro-1,2,4-triazin-3(2H)-one]
- IC50 [1]: 4600 nM
- IC50 [2]: 2700 nM

SMILES: CC(=O)N1CCCc2cc(C3=NNC(=O)NC3C)ccc21 (stereo not drawn) [Example 10 - (5), 6-(1-acetyl-1,2,3,4-tetrahydroquinolin-6-yl)-5-methyl-4,5-dihydro-1,2,4-triazin-3(2H)-one]
- Effect Max (mean ratio of maximum decrease of blood pressure) (blood pressure; 1 mg/kg (dose b)): 40%
- IC50 [1]: 1400 nM
- IC50 [2]: 540 nM

SMILES: CC1NC(=O)NN=C1c1ccc2c(c1)CCCN2 (stereo not drawn) [Example 10 - (6), 6-(1,2,3,4-tetrahydroquinolin-6-yl)-5-methyl-4,5-dihydro-1,2,4-triazin-3(2H)-one]
- Effect Max (mean ratio of maximum decrease of blood pressure) (blood pressure; 0.1 mg/kg (dose a)): 33%
- Effect Max (mean ratio of maximum decrease of blood pressure) (blood pressure; 1 mg/kg (dose b)): 57%
- IC50 [1]: 1300 nM
- IC50 [2]: 470 nM

SMILES: CC(=O)N1CCCc2ccc(C3=NNC(=O)NC3C)cc21 (stereo not drawn) [Example 11 - (3), 6-(1-Acetyl-1,2,3,4-tetrahydroquinolin-7-yl)-5-methyl-4,5-dihydro-1,2,4-triazin-3(2H)-one]
- IC50 [1]: 3700 nM
- IC50 [2]: 1900 nM

SMILES: CC1NC(=O)NN=C1c1ccc2c(c1)NCCC2 (stereo not drawn) [Example 11 - (4), 6-(1,2,3,4-Tetrahydroquinolin-7-yl)-5-methyl-4,5-dihydro-1,2,4-triazin-3(2H)-one]
- IC50 [1]: 56000 nM
- IC50 [2]: 22000 nM

SMILES: CC1NC(=O)NN=C1c1ccc2c(ccc(=O)n2C)c1 (stereo not drawn) [Example 12 - (3), 6-(1-Methyl-2-oxo-1,2-dihydroquinolin-6-yl)-5-methyl-4,5-dihydro-1,2,4-triazin-3(2H)-one]
- Effect Max (mean ratio of maximum decrease of blood pressure) (blood pressure; 0.1 mg/kg (dose a)): 40%
- Effect Max (mean ratio of maximum decrease of blood pressure) (blood pressure; 1 mg/kg (dose b)): 58%
- IC50 [1]: 67 nM
- IC50 [2]: 48 nM

SMILES: CC1NC(=O)NN=C1c1ccc2c(c1)CCCN2C(=O)C1CC1 (stereo not drawn) [Example 13, 6-(1-cyclopropanecarbonyl-1,2,3,4-tetrahydroquinolin-6-yl)-5-methyl-4,5-dihydro-1,2,4-triazin-3(2H)-one]
- IC50 [1]: 160 nM
- IC50 [2]: 34 nM

SMILES: CC1NC(=O)NN=C1c1ccc2c(c1)CCCN2C(=O)C1CCC1 (stereo not drawn) [Example 14, 6-(1-Cyclobutanecarbonyl-1,2,3,4-tetrahydroquinolin-6-yl)-5-methyl-4,5-dihydro-1,2,4-triazin-3(2H)-one]
- IC50 [1]: 250 nM
- IC50 [2]: 81 nM

SMILES: CC1NC(=O)NN=C1c1ccc2c(c1)CCCN2C (stereo not drawn) [Example 15, 6-(1-methyl-1,2,3,4-tetrahydroquinolin-6-yl)-5-methyl-4,5-dihydro-1,2,4-triazin-3(2H)-one]
- Effect Max (mean ratio of maximum decrease of blood pressure) (blood pressure; 1 mg/kg (dose b)): 68%
- IC50 [1]: 5800 nM
- IC50 [2]: 2000 nM
